“Also recorded” adds a separate entry of the source.
Tests used:
[1] = Amiodarone study: safety, treatment-emergent adverse events; format: in vivo, healthy volunteers (human)
[2] = Atorvastatin study: safety, treatment-emergent adverse events
[3] = Digoxin study: safety, treatment-emergent adverse events; details: for Fecal occult bleeding (TEAE): printed under most frequent and under bleeding-related TEAEs
[4] = Digoxin drug-drug interaction study: edoxaban pharmacokinetics
[5] = Dronedarone drug-drug interaction study: edoxaban pharmacokinetics
[6] = Dronedarone study: safety, treatment-emergent adverse events
[7] = cited from earlier work
[8] = Tolerability across the 6 studies; format: in vivo, healthy subjects (human); details: edoxaban alone or coadministered with the 6 cardiovascular drugs
[9] = Quinidine drug-drug interaction study: edoxaban pharmacokinetics
[10] = Verapamil drug-drug interaction study: edoxaban pharmacokinetics
[11] = Edoxaban administered alone, pharmacokinetics across the 6 studies
[12] = Amiodarone drug-drug interaction study: edoxaban pharmacokinetics; details: human, in vivo, 60 mg
[13] = Verapamil study: safety, treatment-emergent adverse events
[14] = Atorvastatin drug-drug interaction study: edoxaban pharmacokinetics; details: human, in vivo, 60 mg
[15] = Quinidine study: safety, treatment-emergent adverse events; details: for Fecal occult bleeding (TEAE): printed under most frequent and under bleeding-related TEAEs

CCCCc1oc2ccccc2c1C(=O)c1cc(I)c(OCCN(CC)CC)c(I)c1 [Amiodarone, amiodarone]
Contact dermatitis (TEAE) [1]: 2 (6.9%) n (%) | Diarrhea (TEAE) [1]: 0 n (%) | Fecal occult bleeding (bleeding-related TEAE) [1]: 0 n (%) | Gingival bleeding (bleeding-related TEAE) [1]: 0 n (%) | Menorrhagia (bleeding-related TEAE) [1]: 0 n (%) | Pain in extremity (TEAE) [1]: 0 n (%) | Subjects reporting ≥1 TEAE [1]: 7 (24.1 %) n (%) | Subjects reporting ≥1 treatment-related TEAE [1]: 1 (3.4 %) n (%)

CC(C)c1c(C(=O)Nc2ccccc2)c(-c2ccccc2)c(-c2ccc(F)cc2)n1CC[C@@H](O)C[C@@H](O)CC(=O)O [Atorvastatin, atorvastatin]
Constipation (TEAE) [2]: 2 (6.3%) n (%) | Dysmenorrhea (bleeding-related TEAE) [2]: 0 n (%) | Fecal occult bleeding (bleeding-related TEAE) [2]: 0 n (%) | Nasal congestion (TEAE) [2]: 1 (3.1%) n (%) | Pharyngolaryngeal pain (TEAE) [2]: 1 (3.1%) n (%) | Subjects reporting ≥1 TEAE [2]: 6 (18.8%) n (%) | Subjects reporting ≥1 treatment-related TEAE [2]: 3 (9.4%) n (%)

C[C@H]1O[C@@H](O[C@H]2[C@@H](O)C[C@H](O[C@H]3[C@@H](O)C[C@H](O[C@H]4CC[C@@]5(C)[C@H](CC[C@@H]6[C@@H]5C[C@@H](O)[C@]5(C)[C@@H](C7=CC(=O)OC7)CC[C@]65O)C4)O[C@@H]3C)O[C@@H]2C)C[C@H](O)[C@@H]1O [Digoxin, digoxin]
Dizziness (TEAE) [3]: 0 n (%) | Headache (TEAE) [3]: 2 (8.3 %) n (%) | Nausea (TEAE) [3]: 1 (4.2 %) n (%) | Subjects reporting ≥1 TEAE [3]: 8 (33.3 %) n (%) | Subjects reporting ≥1 treatment-related TEAE [3]: 1 (4.2 %) n (%) | Fecal occult bleeding (TEAE) [3]: 3 (12.5 %) n (%) | Effect of coadministration on edoxaban exposure/PK (in words) ([4]; digoxin study): minimal effects; also recorded: relatively minor effects; also recorded: did not significantly affect exposure

CCCCc1oc2ccc(NS(C)(=O)=O)cc2c1C(=O)c1ccc(OCCCN(CCCC)CCCC)cc1 [Dronedarone, dronedarone]
Effect of coadministration on edoxaban exposure (in words) ([5]; dronedarone study): increased edoxaban exposure; also recorded: significantly increased exposure | Bleeding-related TEAEs [6]: 0 n (%) | Headache (TEAE) [6]: 0 n (%) | Subjects reporting ≥1 TEAE [6]: 4 (11.8 %) n (%) | Subjects reporting ≥1 treatment-related TEAE [6]: 1 (2.9 %) n (%)

CN1CCc2nc(C(=O)N[C@@H]3C[C@@H](C(=O)N(C)C)CC[C@@H]3NC(=O)C(=O)Nc3ccc(Cl)cn3)sc2C1 [Edoxaban, edoxaban]
Systemically absorbed drug eliminated via renal excretion [7]: approximately 50% | Mean terminal elimination half-life (t½) ([7]; healthy volunteers): 8.75 to 10.4 h | Time of peak concentrations postdose ([7]; healthy volunteers): 1 to 2 h | Contact dermatitis (TEAE) [1]: 0 n (%) | Diarrhea (TEAE) [1]: 1 (3.3 %) n (%) | Fecal occult bleeding (bleeding-related TEAE) [1]: 0 n (%) | Gingival bleeding (bleeding-related TEAE) [1]: 0 n (%) | Menorrhagia (bleeding-related TEAE) [1]: 0 n (%) | Pain in extremity (TEAE) [1]: 1 (3.3 %) n (%) | Subjects reporting ≥1 TEAE [1]: 5 (16.7 %) n (%) | Tolerability (in words) [8]: well tolerated | Dizziness (TEAE) [3]: 1 (4.2 %) n (%) | Headache (TEAE) [3]: 0 n (%) | Nausea (TEAE) [3]: 1 (4.2 %) n (%) | Subjects reporting ≥1 TEAE [3]: 19 (79.2 %) n (%) | Subjects reporting ≥1 treatment-related TEAE [3]: 1 (4.2 %) n (%) | Fecal occult bleeding (TEAE) [3]: 1 (4.2 %) n (%) | AUC(0-inf) ([9]; human, in vivo, 60 mg): 1580 ng·h/mL | Cmax ([9]; human, in vivo, 60 mg): 223 ng/mL | Tmax ([9]; human, in vivo, 60 mg): 1.48 h | concentration at 24 h ([9]; human, in vivo, 60 mg): 11 ng/mL | half-life ([9]; human, in vivo, 60 mg): 6.43 h | AUC(0-t) ([9]; human, in vivo, 60 mg, Edoxaban AUC0–24, quinidine study, mean (SD)): 1450 ng·h/mL | AUC(0-t) ([9]; human, in vivo, 60 mg, Edoxaban AUClast, quinidine study, mean (SD)): 1440 ng·h/mL | Edoxaban AUC0–24 ([9]; quinidine study, mean (SD)): 1449.2 (328.6) ng·h/mL | half-life ([5]; human, in vivo, 60 mg): 10.2 h | AUC(0-t) ([10]; human, in vivo, 60 mg): 1440 ng·h/mL | Cmax ([10]; human, in vivo, 60 mg): 226 ng/mL | Tmax ([10]; human, in vivo, 60 mg): 1.48 h | concentration at 24 h ([10]; human, in vivo, 60 mg): 11 ng/mL | half-life ([10]; human, in vivo, 60 mg): 7.43 h | Time of peak edoxaban concentrations postdose ([11]; across the studies): 1 to 3 h | AUC(0-inf) ([11]; human, in vivo, 60 mg): 1580 to 1970 ng·h/mL | Cmax ([11]; human, in vivo, 60 mg): 223 to 296 ng/mL | Bleeding-related TEAEs [6]: 0 n (%) | Headache (TEAE) [6]: 0 n (%) | Subjects reporting ≥1 TEAE [6]: 0 n (%) | Subjects reporting ≥1 treatment-related TEAE [6]: 0 n (%) | AUC(0-inf) [12]: 1740 ng·h/mL | AUC(0-t) [12]: 1720 ng·h/mL | Cmax [12]: 251 ng/mL | half-life [12]: 12.2 h | Constipation (TEAE) [13]: 1 (3.0 %) n (%) | Epistaxis (bleeding-related TEAE) [13]: 0 n (%) | Fecal occult bleeding (bleeding-related TEAE) [13]: 1 (3.0 %) n (%) | Headache (TEAE) [13]: 0 n (%) | Menorrhagia (bleeding-related TEAE) [13]: 0 n (%) | Occular hyperemia (TEAE) [13]: 0 n (%) | Subjects reporting ≥1 TEAE [13]: 4 (12.1 %) n (%) | Subjects reporting ≥1 treatment-related TEAE [13]: 1 (3.0 %) n (%) | AUC(0-inf) [14]: 1970 ng·h/mL | Cmax [14]: 282 ng/mL | Tmax [14]: 1.02 h | concentration at 24 h [14]: 12.6 ng/mL | half-life [14]: 12 h | Constipation (TEAE) [2]: 0 n (%) | Dysmenorrhea (bleeding-related TEAE) [2]: 1 (3.1%) n (%) | Fecal occult bleeding (bleeding-related TEAE) [2]: 2 (6.3%) n (%) | Nasal congestion (TEAE) [2]: 0 n (%) | Pharyngolaryngeal pain (TEAE) [2]: 0 n (%) | Subjects reporting ≥1 TEAE [2]: 4 (13.3%) n (%) | Subjects reporting ≥1 treatment-related TEAE [2]: 1 (3.3%) n (%) | AUC ([4]; human, in vivo, 60 mg): 1960 ng·h/mL | concentration at 24 h ([4]; human, in vivo, 60 mg): 24.5 ng/mL | half-life ([4]; human, in vivo, 60 mg): 9.83 h | Blood creatinine increased (TEAE) [15]: 0 n (%) | Chest pain (TEAE) [15]: 1 (2.7 %) n (%) | Epistaxis (bleeding-related TEAE) [15]: 0 n (%) | Headache (TEAE) [15]: 0 n (%) | Hematochezia (bleeding-related TEAE) [15]: 1 (2.7 %) n (%) | Irregular menstruation (bleeding-related TEAE) [15]: 1 (2.7 %) n (%) | Menorrhagia (bleeding-related TEAE) [15]: 1 (2.7 %) n (%) | Nausea (TEAE) [15]: 0 n (%) | Subjects reporting ≥1 TEAE [15]: 5 (13.5 %) n (%) | Subjects reporting ≥1 treatment-related TEAE [15]: 3 (8.1 %) n (%) | Fecal occult bleeding (TEAE) [15]: 2 (5.4 %) n (%)

C=C[C@H]1C[N@@]2CC[C@H]1C[C@@H]2[C@@H](O)c1ccnc2ccc(OC)cc12 [Quinidine, quinidine]
Effect of coadministration on edoxaban exposure (in words) ([9]; quinidine study): increased edoxaban exposure; also recorded: significantly increased exposure | Blood creatinine increased (TEAE) [15]: 1 (2.8 %) n (%) | Chest pain (TEAE) [15]: 0 n (%) | Epistaxis (bleeding-related TEAE) [15]: 1 (2.8 %) n (%) | Headache (TEAE) [15]: 3 (8.3 %) n (%) | Hematochezia (bleeding-related TEAE) [15]: 0 n (%) | Irregular menstruation (bleeding-related TEAE) [15]: 0 n (%) | Menorrhagia (bleeding-related TEAE) [15]: 0 n (%) | Nausea (TEAE) [15]: 2 (5.6 %) n (%) | Subjects reporting ≥1 TEAE [15]: 11 (30.6 %) n (%) | Subjects reporting ≥1 treatment-related TEAE [15]: 4 (11.1 %) n (%) | Subjects withdrawn with QTc prolongation ([15]; after quinidine dosing): 1 subject | Fecal occult bleeding (TEAE) [15]: 0 n (%)

COc1ccc(CCN(C)CCCC(C#N)(c2ccc(OC)c(OC)c2)C(C)C)cc1OC (stereo not drawn) [Verapamil, verapamil]
Effect of coadministration on edoxaban exposure (in words) ([10]; verapamil study): increased edoxaban exposure; also recorded: significantly increased exposure | Constipation (TEAE) [13]: 4 (12.1 %) n (%) | Epistaxis (bleeding-related TEAE) [13]: 0 n (%) | Fecal occult bleeding (bleeding-related TEAE) [13]: 0 n (%) | Headache (TEAE) [13]: 3 (9.1 %) n (%) | Menorrhagia (bleeding-related TEAE) [13]: 1 (3.0 %) n (%) | Occular hyperemia (TEAE) [13]: 1 (3.0 %) n (%) | Subjects reporting ≥1 TEAE [13]: 13 (39.4 %) n (%) | Subjects reporting ≥1 treatment-related TEAE [13]: 9 (27.2 %) n (%) | Subjects withdrawn with abnormal ECG ([13]; following verapamil monotherapy): 3 subjects

— PMC3781304 (American Journal of Cardiovascular Drugs, 2013)
